Laboratory results as given in PMC12749626, “Expediting hit-to-lead progression in drug discovery through reaction prediction and multi-dimensional optimization” (Nature Communications, 2025).
Converted amounts (≈) assume the structure as drawn.

Tests used:
Solubility in 0.05M PO4- = format: physicochemical; settings: for solubility: 0.05 M phosphate buffer, aqueous buffer
[1] = Microsomal clearance, human microsomes
CYP2C9 = CYP2C9 (Homo sapiens, UniProt P11712); test: Cytochrome P450 inhibition assay, CYP2C9; settings: liver microsomes
CYP2D6 = CYP2D6 (Homo sapiens, UniProt P10635); test: Cytochrome P450 inhibition assay, CYP2D6; settings: liver microsomes
CYP3A4 = CYP3A4 (Homo sapiens, UniProt P08684); test: Cytochrome P450 inhibition assay, CYP3A4; settings: liver microsomes
Hepatocyte clearance = settings: for hepatocyte CLint at 1 µM: human, primary pooled cryopreserved hepatocytes in suspension
[2] = Microsomal clearance, mouse microsomes
human MAGL = target: T1, human MAGL (Homo sapiens, UniProt Q99685); settings: = pIC50 - cLogP
T1 sequence (Q99685 1-303): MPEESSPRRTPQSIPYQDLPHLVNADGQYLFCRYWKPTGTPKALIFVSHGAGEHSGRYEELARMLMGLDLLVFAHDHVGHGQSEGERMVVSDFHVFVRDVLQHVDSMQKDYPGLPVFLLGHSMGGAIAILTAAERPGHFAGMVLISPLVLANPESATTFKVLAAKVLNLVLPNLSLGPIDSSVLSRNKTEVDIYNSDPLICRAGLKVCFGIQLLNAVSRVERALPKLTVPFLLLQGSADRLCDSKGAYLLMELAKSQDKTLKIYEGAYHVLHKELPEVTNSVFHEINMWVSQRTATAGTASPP

[3] = Parallel Artificial Membrane Permeability (PAMPA); settings: for Papp at 18 h, 150 µM: PAMPA, pH 6; for PAMPA permeability: donor buffer pH 6.0, 18-hour incubation
ABCB1 (MDR1, human P-gp) = ABCB1 (MDR1, human P-gp) (Homo sapiens, UniProt P08183); test: P-glycoprotein (P-gp) assay in LLC-PK1 cells transfected with ABCB1; settings: human, LLC-PK1
Solubility in FESSIF = format: physicochemical

Sequence of CYP2C9 (P11712 whole entry): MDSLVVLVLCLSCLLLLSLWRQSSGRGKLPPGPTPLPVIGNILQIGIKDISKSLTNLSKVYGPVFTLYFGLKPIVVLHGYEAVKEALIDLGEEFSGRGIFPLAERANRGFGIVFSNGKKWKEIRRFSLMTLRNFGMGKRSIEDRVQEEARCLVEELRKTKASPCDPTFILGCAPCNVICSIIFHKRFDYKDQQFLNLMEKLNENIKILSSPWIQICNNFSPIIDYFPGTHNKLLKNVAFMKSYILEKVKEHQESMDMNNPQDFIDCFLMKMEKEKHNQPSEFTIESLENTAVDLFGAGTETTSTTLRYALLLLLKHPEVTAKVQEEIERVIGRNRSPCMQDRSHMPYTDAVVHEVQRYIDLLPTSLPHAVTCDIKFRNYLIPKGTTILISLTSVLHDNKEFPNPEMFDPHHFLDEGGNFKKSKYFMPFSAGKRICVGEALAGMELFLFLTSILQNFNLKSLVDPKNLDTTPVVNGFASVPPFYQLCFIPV
Sequence of CYP2D6 (P10635 whole entry): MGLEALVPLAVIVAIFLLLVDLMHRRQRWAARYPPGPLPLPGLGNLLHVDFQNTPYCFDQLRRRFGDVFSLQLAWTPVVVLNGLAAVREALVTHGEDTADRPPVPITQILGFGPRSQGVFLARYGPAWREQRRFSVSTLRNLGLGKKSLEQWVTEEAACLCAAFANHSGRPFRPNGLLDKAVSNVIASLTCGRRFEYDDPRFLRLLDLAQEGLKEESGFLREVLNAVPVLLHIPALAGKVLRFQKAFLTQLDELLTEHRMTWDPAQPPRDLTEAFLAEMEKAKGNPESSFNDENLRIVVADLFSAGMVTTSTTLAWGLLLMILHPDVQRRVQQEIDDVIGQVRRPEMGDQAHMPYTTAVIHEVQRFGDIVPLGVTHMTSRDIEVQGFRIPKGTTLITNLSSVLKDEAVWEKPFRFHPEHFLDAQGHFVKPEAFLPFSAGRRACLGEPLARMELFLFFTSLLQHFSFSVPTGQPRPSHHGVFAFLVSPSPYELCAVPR
Sequence of CYP3A4 (P08684 whole entry): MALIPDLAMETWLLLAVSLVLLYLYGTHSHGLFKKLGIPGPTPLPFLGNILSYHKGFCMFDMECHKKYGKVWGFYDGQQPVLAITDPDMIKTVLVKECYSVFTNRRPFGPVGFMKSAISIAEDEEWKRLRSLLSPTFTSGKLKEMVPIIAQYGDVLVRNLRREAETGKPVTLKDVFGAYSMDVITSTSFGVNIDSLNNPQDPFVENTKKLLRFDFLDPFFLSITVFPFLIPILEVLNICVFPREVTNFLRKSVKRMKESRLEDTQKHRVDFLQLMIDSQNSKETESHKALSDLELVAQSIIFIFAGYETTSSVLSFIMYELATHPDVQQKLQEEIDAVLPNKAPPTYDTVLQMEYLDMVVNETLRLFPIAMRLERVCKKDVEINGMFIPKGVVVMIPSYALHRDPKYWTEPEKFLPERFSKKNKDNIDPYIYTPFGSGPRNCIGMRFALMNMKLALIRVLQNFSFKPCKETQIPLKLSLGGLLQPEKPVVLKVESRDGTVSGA
Sequence of ABCB1 (MDR1, human P-gp) (P08183 whole entry): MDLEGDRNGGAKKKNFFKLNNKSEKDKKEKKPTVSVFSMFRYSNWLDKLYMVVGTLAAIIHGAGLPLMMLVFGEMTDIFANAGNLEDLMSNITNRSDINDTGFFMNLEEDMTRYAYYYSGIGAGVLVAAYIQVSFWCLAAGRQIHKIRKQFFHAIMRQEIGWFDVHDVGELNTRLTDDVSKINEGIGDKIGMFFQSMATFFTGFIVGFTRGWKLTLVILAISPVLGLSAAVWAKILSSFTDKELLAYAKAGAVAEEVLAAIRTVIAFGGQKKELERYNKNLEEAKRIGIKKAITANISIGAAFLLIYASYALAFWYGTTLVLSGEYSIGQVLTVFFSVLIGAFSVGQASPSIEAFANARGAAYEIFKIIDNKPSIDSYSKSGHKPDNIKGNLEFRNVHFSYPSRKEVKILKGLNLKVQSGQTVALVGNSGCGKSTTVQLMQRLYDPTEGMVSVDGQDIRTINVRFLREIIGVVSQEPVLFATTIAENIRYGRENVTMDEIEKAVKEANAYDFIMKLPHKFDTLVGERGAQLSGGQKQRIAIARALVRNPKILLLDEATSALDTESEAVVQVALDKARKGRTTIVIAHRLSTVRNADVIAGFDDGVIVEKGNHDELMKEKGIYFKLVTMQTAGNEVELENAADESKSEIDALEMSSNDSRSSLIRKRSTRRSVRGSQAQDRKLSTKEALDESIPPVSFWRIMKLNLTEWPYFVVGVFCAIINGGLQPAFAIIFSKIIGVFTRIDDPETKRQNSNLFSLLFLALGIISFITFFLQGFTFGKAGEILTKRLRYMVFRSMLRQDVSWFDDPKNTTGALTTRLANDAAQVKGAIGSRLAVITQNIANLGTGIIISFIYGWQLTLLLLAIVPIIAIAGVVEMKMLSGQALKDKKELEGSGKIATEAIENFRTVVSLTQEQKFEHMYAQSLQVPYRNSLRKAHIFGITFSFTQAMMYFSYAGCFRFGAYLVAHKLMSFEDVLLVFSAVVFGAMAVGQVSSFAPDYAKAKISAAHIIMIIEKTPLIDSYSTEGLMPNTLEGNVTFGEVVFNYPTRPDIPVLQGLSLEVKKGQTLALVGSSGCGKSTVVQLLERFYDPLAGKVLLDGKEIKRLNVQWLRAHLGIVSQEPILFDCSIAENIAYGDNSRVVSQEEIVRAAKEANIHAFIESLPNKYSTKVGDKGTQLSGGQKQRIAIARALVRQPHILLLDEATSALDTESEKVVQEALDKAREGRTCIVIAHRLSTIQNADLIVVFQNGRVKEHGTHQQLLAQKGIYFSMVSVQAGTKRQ

SMILES	solubility (Solubility in 0.05M PO4-) [µg/mL]	microsomal CLint at 1 µM [1] [µL/min/mg]	CYP2C9 Inhibition (CYP2C9) [%]	CYP2D6 Inhibition (CYP2D6) [%]	CYP3A4 Inhibition (CYP3A4) [%]	hepatocyte CLint at 1 µM (Hepatocyte clearance) [µL/min/1e6 cells]	microsomal CLint at 1 µM [2] [µL/min/mg]	Solubility in 0.05M PO4- (Solubility in 0.05M PO4-) [µg/mL]	Lipophilic efficiency (LipE) (human MAGL)	Hepatocyte clearance (Hepatocyte clearance; cryopreserved hepatocytes of human origin, 1 µM compound) [µL/min/10^6 cells]	Papp at 18 h, 150 µM [3] [×10⁻⁶ cm/s]	Papp A→B (ABCB1 (MDR1, human P-gp)) [×10⁻⁶ cm/s]	solubility (Solubility in FESSIF) [µg/mL]	PAMPA permeability [3]	cell permeability ([3]; in words, SI2.2, Fig. S1 (PAMPA vs LipE))
O=C(c1ccc2nc(-c3cnccc3C3CCCC3)oc2c1)N1CCN(c2nc3ccccc3c(=O)[nH]2)CC1 [Compound 18]	< 0.05	853	62	45	> 90	–	–	–	–	–	–	–	–	–	–
O=C(c1ccc2nc(-c3cnc(C4CCCCC4)cc3C3CCCCC3)oc2c1)N1CCN(c2nc3ccccc3c(=O)[nH]2)CC1 [Compound 19]	< 1.1	17	49	23	44	4.6	47	–	–	–	–	–	–	–	–
O=C(c1ccc2nc(-c3ccc(C4(C5CCC5)CC4)nc3)oc2c1)N1CCN(c2nc3ccccc3c(=O)[nH]2)CC1 [Compound 20]	–	–	24	16	49	–	–	< 0.05	2.84	84.2	–	–	–	–	–
O=C(c1ccc2nc(-c3cccnc3C3CCCC3)oc2c1)N1CCN(c2nc3ccccc3c(=O)[nH]2)CC1 [Compound 21]	< 0.05	53	74	41	4	47.7	114	–	–	–	3.7	10	–	–	–
O=C(c1ccc2nc(-c3ccc(C4CCCC4)nc3)oc2c1)N1CCN(c2nc3ccccc3c(=O)[nH]2)CC1 [Compound 22]	< 0.05	142	23	62	-59	104	–	–	–	–	2.7	8.1	–	–	–
O=C(c1ccc2nc(-c3cccnc3C3CCCC3)oc2c1)N1CCN(c2nc3nc(Cl)ccc3o2)CC1 [Compound 24]	< 0.05	69	45	26	8	42.2	61	–	–	–	8.5	9.3	2.5 (≈ 4.73 µM)	–	–
O=C(c1ccc2nc(-c3cnccc3C3CCNCC3)oc2c1)N1CCN(c2nc3nc(Cl)ccc3o2)CC1.O=CO [Compound 25]	84	10	-5	34	70	1	10	–	–	–	0.02	–	–	–	–
O=C(c1ccc2nc(-c3cccnc3C3CCNCC3)oc2c1)N1CCN(c2nc3nc(Cl)ccc3o2)CC1.O=CO [Compound 26]	–	–	-23	18	12	–	–	> 590	–	–	–	–	–	0.01 10^-6 cm/s	–
O=C(c1ccc2nc(-c3cccnc3C3(C4CCC4)CC3)oc2c1)N1CCN(c2nc3nc(Cl)ccc3o2)CC1 [Compound 28]	–	–	–	–	–	–	–	–	2.31	–	–	–	–	5.8 10^-6 cm/s	–
O=C(c1ccc2nc(-c3ccc(C4CCCC4)nc3)oc2c1)N1CC2(CC(n3cnc(C4CC4)n3)C2)C1 [Compound 30]	< 0.05	563	-19	3	-40	187	–	–	–	–	4.4	–	–	–	–
O=C(c1ccc2nc(-c3cnccc3C3CCCC3)oc2c1)N1CC(N2CCN(C(=O)c3nccs3)CC2)C1 [Compound 31]	–	431	43	22	> 90	163	–	–	–	–	12.1	–	–	–	potent cell permeability
